Test: Potentiometric titration of dispersion pKa of couplers as aqueous dispersions
Type: physicochemical
Conditions: 0.50M potassium counter ion
Text: Preferred two-equivalent magenta dye-forming couplers for the practice of this invention include those that have pKa values of less than 10.0 when dispersed together with a coupler solvent. Potentiometric titrations were used to measure pKa values for some of the preferred couplers of the invention as aqueous dispersions. In these two-phase mixtures, the term pKa denotes the aqueous buffer pH at which half of the coupler in the oil phase is ionized or ion paired. Table I lists dispersion pKa values measured with 0.50M potassium counter ion.

[1] = coupler solvent C5, coupler:solvent 1:1, aqueous dispersion
[2] = coupler solvent S1, coupler:solvent 1:1, aqueous dispersion
[3] = coupler solvent S2, coupler:solvent 1:2, aqueous dispersion

## CCCCCCCCCCCCCC(=O)Nc1ccc(Cl)c(NC2=NN(c3c(Cl)cc(Cl)cc3Cl)C(=O)C2Sc2ccccc2NC(=O)C(CC)Oc2ccc(C(C)(C)CC)cc2C(C)(C)CC)c1 (stereo not drawn) [M3]
[1]
  pKa (0.5M K+): 8.2
[2]
  pKa (0.5M K+): 7.9

## CCCCCCCCCCCCCCCCCCNS(=O)(=O)c1ccc(Cl)c(NC2=NN(c3c(Cl)cc(Cl)cc3Cl)C(=O)C2Sc2cc(C(C)C)ccc2C(C)C)c1 (stereo not drawn) [M20]
Coupler solvent C1, coupler:solvent 1:2, aqueous dispersion
  pKa (0.5M K+): 8.9
[3]
  pKa (0.5M K+): 8.4

## CCCCCCCCCCCCNS(=O)(=O)c1ccc(NC2=NN(c3c(Cl)cc(Cl)cc3Cl)C(=O)C2Sc2ccccc2NC(=O)CCCCCCCCCCC)c(Cl)c1 (stereo not drawn) [M8]
[3]
  pKa (0.5M K+): 7.9

## CCCCCCCCCCCCCCCC(=O)Nc1ccc(Cl)c(NC2=NN(c3c(Cl)c(Cl)c(Cl)c(Cl)c3Cl)C(=O)C2Sc2ccccc2NC(=O)OCc2ccccc2)c1 (stereo not drawn) [M7]
[3]
  pKa (0.5M K+): 7.5

## CCCCCCCCCCCCNS(=O)(=O)c1ccc(NC2=NN(c3c(Cl)cc(Cl)cc3Cl)C(=O)C2Sc2cc(C(C)(C)CC(C)(C)C)ccc2OCCCC)c(Cl)c1 (stereo not drawn) [M1]
[3]
  pKa (0.5M K+): 8.5

## CCCCCCCCCCCCNS(=O)(=O)c1ccc(NC2=NN(c3c(Cl)cc(Cl)cc3Cl)C(=O)C2Sc2ccccc2NC(=O)C(CC)Oc2ccc(C(C)(C)CC)cc2C(C)(C)CC)c(Cl)c1 (stereo not drawn) [M4]
[1]
  pKa (0.5M K+): 8.0
[2]
  pKa (0.5M K+): 7.6

— patent publication US5462848A, “Color photographic materials including magenta coupler, inhibitor-releasing coupler and carbonamide compound, and methods” (Eastman Kodak Company, priority 1993, dated 1995)
